Measurements taken from publication PMC9143880, “Improving Antimicrobial Activity and Physico-Chemical Properties by Isosteric Replacement of 2-Aminothiazole with 2-Aminooxazole” (Pharmaceuticals, 2022).
Like-named read-outs stand apart in the source and are kept apart here.

Tests used:
[1] = test system: Acinetobacter baumannii DSM 30007 (ATCC 19606); test: Antibacterial microdilution broth (EUCAST); type: cell-based; settings: 24h incubation; for MIC: Acinetobacter baumannii, read-out: MIC AB
[2] = test system: M. smegmatis DSM 43465 (ATCC 607); test: Antimycobacterial MIC, microdilution broth / resazurin; type: cell-based; settings: Mycolicibacterium smegmatis, read-out: MIC M. smegmatis
[3] = test system: Candida parapsilosis CCM 8260 (ATCC 22019); test: Antifungal microdilution broth (EUCAST); settings: for MIC: Lodderomyces parapsilosis, 24 h, read-out: MIC CP
[4] = test system: Candida krusei CCM 8271 (ATCC 6258); test: Antifungal microdilution broth (EUCAST); settings: for MIC: Pichia kudriavzevii, 24 h, read-out: MIC CK
[5] = test system: HepG2 cells; test: HepG2 cytotoxicity screening (CellTiter 96); type: cell-based, human; settings: for IC50: Homo sapiens, HepG2, 24 h, 24 h incubation, CellTiter 96, * above highest tested concentration, ** limited by insolubility in medium
[6] = test system: Aspergillus flavus CCM 8363; test: Antifungal microdilution broth (EUCAST); settings: for MIC: Aspergillus flavus, CCM8363, 24 h, read-out: MIC AFla
[7] = test system: Lichtheimia corymbifera CCM 8077; test: Antifungal microdilution broth (EUCAST); settings: for MIC: Lichtheimia corymbifera, CCM8077, 24 h, read-out: MIC LC
[8] = test system: Candida albicans CCM 8320 (ATCC 24433); test: Antifungal microdilution broth (EUCAST); settings: for MIC: Candida albicans, 24 h, read-out: MIC CA
[9] = test system: Escherichia coli CCM 3954 (ATCC 25922); test: Antibacterial microdilution broth (EUCAST); type: cell-based; settings: 24h incubation; for MIC: Escherichia coli, read-out: MIC EC
[10] = test system: Trichophyton interdigitale CCM 8377 (ATCC 9533); test: Antifungal microdilution broth (EUCAST); settings: for MIC: Trichophyton interdigitale, 72 h, read-out: MIC TI
[11] = test system: Aspergillus fumigatus ATCC 204305; test: Antifungal microdilution broth (EUCAST); settings: for MIC: Aspergillus fumigatus, ATCC204305, 24 h, read-out: MIC AF
[12] = test system: Candida tropicalis CCM 8264 (ATCC 750); test: Antifungal microdilution broth (EUCAST); settings: for MIC: Candida tropicalis, 24 h, read-out: MIC CT
[13] = RP-UHPLC lipophilicity parameter log k’w; type: physicochemical; settings: for log k’w: RP-UHPLC, acetonitrile/water, log k extrapolated to 0% acetonitrile; for logkw: experimental lipophilicity parameter
Excerpt: Lipophilicity and water solubility of the drug candidates are important parameters as they are often directly related to their ADME properties in the organism. Lipophilicity is usually expressed as the logarithm of the partition coefficient in n-octanol/water (log P). Due to its laborious determination, especially in the HTS screening, other experimental methods such as RP-HPLC log k’w or purely computational approaches such as Clog P were proposed and have been established as reasonable estimators of true lipophilicity. To investigate the changes in lipophilicity upon introduction of oxazole in the title compounds, we determined the log k’w of all derivatives and compared respective values among the pairs.
The log k of the synthesized compounds was measured using the same instrument (single measurement per concentration), software, and column as was used in the purity evaluation. Working solutions were diluted as described above for purity determination. The log k parameter was calculated after the UHPLC measurements using isocratic mode with mobile phase acetonitrile (B)/water (A) in a set of concentrations of 40, 45, 50% and 20, 30, 40% B for subtype I and subtype II, respectively.

[14] = test system: Staphylococcus aureus subsp. aureus CCM 4223 (ATCC 29213); test: Antibacterial microdilution broth (EUCAST); type: cell-based; settings: 24h incubation; for MIC: Staphylococcus aureus, read-out: MIC SA
[15] = test system: Staphylococcus aureus subsp. aureus (MRSA) CCM 4750 (ATCC 43300); test: Antibacterial microdilution broth (EUCAST); type: cell-based; settings: 24h incubation; for MIC: Staphylococcus aureus, read-out: MIC MRSA
[16] = test system: M. kansasii DSM 44162 (ATCC 12478); test: Antimycobacterial MIC, microdilution broth / resazurin; type: cell-based; settings: Mycobacterium kansasii, read-out: MIC M. kansasii
[17] = test system: Mycobacterium tuberculosis H37Ra ITM-M006710 (ATCC 9431); test: Antimycobacterial MIC, microdilution broth / Alamar Blue (resazurin); type: cell-based; settings: Mycobacterium tuberculosis
[18] = test system: Staphylococcus epidermidis CCM 4418 (ATCC 12228); test: Antibacterial microdilution broth (EUCAST); type: cell-based; settings: 24h incubation; for MIC: Staphylococcus epidermidis, read-out: MIC SE
[19] = test system: M. avium DSM 44156 (ATCC 25291); test: Antimycobacterial MIC, microdilution broth / resazurin; type: cell-based, Mycobacterium avium; settings: for MIC: Mycobacterium avium, read-out: MIC M. avium
[20] = test system: M. aurum DSM 43999 (ATCC 23366); test: as above; type: cell-based; settings: Mycolicibacterium aurum, read-out: MIC M. aurum
[21] = test system: Pseudomonas aeruginosa CCM 3955 (ATCC 27853); test: Antibacterial microdilution broth (EUCAST); type: cell-based; settings: 72h incubation; for MIC: Pseudomonas aeruginosa, read-out: MIC PA
[22] = test system: Enterococcus faecalis CCM 4224 (ATCC 29212); test: Antibacterial microdilution broth (EUCAST); type: cell-based; settings: 24h incubation; for MIC: Enterococcus faecalis, read-out: MIC EF
[23] = 120 h, Middlebrook 7H9, resazurin after 120 h, read-out: Mtb H37Ra MIC

O=C(Nc1nc(-c2ccccc2)co1)c1cnc(Cl)cn1 [Compound 18b]
125 µg/mL: MIC ([20]; resazurin after 72 h)
62.5 µg/mL: MIC ([19]; resazurin after 96 h)
2.073: log k’w [13] | logkw [13]
insoluble: MIC AB [1] | MIC CP ([3]; 24h incubation) | MIC CK ([4]; 24h incubation) | MIC AFla ([6]; 24h incubation) | MIC LC ([7]; 24h incubation) | MIC CA ([8]; 24h incubation) | MIC EC [9] | MIC TI ([10]; 72h incubation) | MIC AF ([11]; 24h incubation) | MIC CT ([12]; 24h incubation) | MIC SA [14] | MIC MRSA [15] | MIC SE [18] | MIC PA [21] | MIC EF [22]
> 100 µM: IC50 [5]
15.6 µg/mL: MIC ([16]; 96 h) | MIC [17, 23]
≥ 500 µg/mL: MIC ([2]; resazurin after 48 h)
203 to 207 °C: melting point

Cc1cncc(C(=O)Nc2nc(-c3ccccc3)co2)c1 [Compound 14b]
250 µM: MIC [14] | MIC [15] | MIC [18]
≥ 250 µg/mL: MIC ([2]; resazurin after 48 h) | MIC ([16]; resazurin after 96 h) | MIC [17, 23] | MIC ([19]; resazurin after 96 h) | MIC ([20]; resazurin after 72 h)
> 100 µM: IC50 [5]
> 250 µM: MIC [1] | MIC [9] | MIC [21] | MIC [22]
> 500 µM: MIC [3] | MIC [4] | MIC [6] | MIC [7] | MIC [8] | MIC [10] | MIC [11] | MIC [12]
258.6 °C: melting point
1.478: log k’w [13] | logkw [13]

Cc1cc(C(=O)Nc2ncco2)ccn1 [Compound 5b]
> 125 µM: MIC [3] | MIC [4] | MIC [6] | MIC [7] | MIC [8] | MIC [10] | MIC [11] | MIC [12]
62.5 µg/mL: MIC ([19]; resazurin after 96 h)
19.2 µM: MIC ([17]; recalculated from µg/mL, read-out: MICH37Ra)
>52.0: SI ([5]; SI = IC50 (µM) HepG2 / MICH37Ra (µM))
3.91 µg/mL: MIC [17, 23]
31.2 µg/mL: MIC ([16]; resazurin after 96 h)
> 500 µM: MIC [1] | MIC [9] | MIC [14] | MIC [15] | MIC [18] | MIC [21] | MIC [22]
0.714: log k’w [13] | logkw [13]
> 1000 µM: IC50 [5]
149 to 152 °C: melting point
15.6 µg/mL: MIC ([20]; resazurin after 72 h)
250 µg/mL: MIC ([2]; resazurin after 48 h)

O=C(Nc1nccs1)c1cnc(Cl)cn1 [Compound 9a]
15.6 µg/mL: MIC ([19]; resazurin after 96 h)
> 500 µM: MIC [1] | MIC [3] | MIC [4] | MIC [7] | MIC [8] | MIC [9] | MIC [10] | MIC [12] | MIC [14] | MIC [15] | MIC [18] | MIC [21] | MIC [22]
197 to 200 °C: melting point
1.941: log k’w [13] | logkw [13]
≥ 500 µg/mL: MIC ([2]; resazurin after 48 h) | MIC ([20]; resazurin after 72 h)
500 µM: MIC [6] | MIC [11]
31.2 µg/mL: MIC [17, 23]
< 3.91 µg/mL: MIC ([16]; resazurin after 96 h)

Cc1cc(C(=O)Nc2nc(-c3ccccc3)cs2)cc(Cl)n1 [Compound 16a]
> 125 µM: MIC [3] | MIC [4] | MIC [6] | MIC [7] | MIC [8] | MIC [10] | MIC [11] | MIC [12]
> 500 µM: MIC [1] | MIC [9] | MIC [14] | MIC [15] | MIC [18] | MIC [21] | MIC [22]
3.314: log k’w [13] | logkw [13]
92 to 96 °C: melting point
3.91 µg/mL: MIC ([16]; resazurin after 96 h)
7.81 µg/mL: MIC ([2]; 48 h) | MIC [17, 23] | MIC ([19]; 96 h)
15.6 µg/mL: MIC ([20]; resazurin after 72 h)

O=C(Nc1nc(-c2ccccc2)co1)c1cnc2ccccc2n1 [Compound 19b]
strongly active: MIC M. avium ([19]; resazurin after 96 h)
3.91 µg/mL: MIC ([16]; resazurin after 96 h)
> 500 µM: MIC [1] | MIC [9] | MIC [14] | MIC [15] | MIC [18] | MIC [21] | MIC [22]
181 to 183 °C: melting point
2.465: log k’w [13] | logkw [13]
7.81 µg/mL: MIC ([19]; resazurin after 96 h)
≥ 500 µg/mL: MIC ([2]; resazurin after 48 h) | MIC [17, 23] | MIC ([20]; resazurin after 72 h)
> 125 µM: MIC [3] | MIC [4] | MIC [6] | MIC [7] | MIC [8] | MIC [10] | MIC [11] | MIC [12]

Cc1cc(C(=O)Nc2nc(-c3ccccc3)co2)cc(Cl)n1 [Compound 16b]
2.251: log k’w [13] | logkw [13]
15.6 µg/mL: MIC ([16]; 96 h) | MIC [17, 23]
> 125 µM: MIC [1] | MIC [3] | MIC [4] | MIC [6] | MIC [7] | MIC [8] | MIC [9] | MIC [11] | MIC [12] | MIC [21] | MIC [22]
31.2 µg/mL: MIC ([2]; resazurin after 48 h)
7.81 µg/mL: MIC ([19]; resazurin after 96 h) | MIC ([20]; resazurin after 72 h)
83 to 86 °C: melting point
125 µM: MIC [18]
62.5 µM: MIC [10] | MIC [14] | MIC [15]

O=C(Nc1nc(-c2ccccc2)cs1)c1cnc2ccccc2n1 [Compound 19a]
3.583: log k’w [13] | logkw [13]
217 to 219 °C: melting point
≥ 500 µg/mL: MIC ([2]; resazurin after 48 h) | MIC ([16]; resazurin after 96 h) | MIC [17, 23] | MIC ([19]; resazurin after 96 h) | MIC ([20]; resazurin after 72 h)
> 250 µM: MIC [1] | MIC [9] | MIC [14] | MIC [15] | MIC [18] | MIC [21] | MIC [22]
> 125 µM: MIC [3] | MIC [4] | MIC [6] | MIC [7] | MIC [8] | MIC [10] | MIC [11] | MIC [12]

O=C(Nc1ncco1)c1cnccn1 [Compound 8b]
31.2 µg/mL: MIC [17, 23] | MIC ([20]; 72 h)
0.154: log k’w [13] | logkw [13]
500 µM: MIC [7] | MIC [10]
160 to 164 °C: melting point
62.5 µg/mL: MIC ([19]; resazurin after 96 h)
≥ 500 µg/mL: MIC ([2]; resazurin after 48 h)
> 500 µM: MIC [1] | MIC [3] | MIC [4] | MIC [6] | MIC [8] | MIC [9] | MIC [11] | MIC [12] | MIC [14] | MIC [15] | MIC [18] | MIC [21] | MIC [22]
15.6 µg/mL: MIC ([16]; resazurin after 96 h)
